Patent publication US20220056019A1, “FARNESOID X RECEPTOR AGONISTS AND USES THEREOF” (Metacrine, Inc., priority 2018, published 2022)
pEC50: −log10 of the molar value.

Molecular target: T1, hFXR (Homo sapiens, UniProt Q96RI1)
T1 construct: expressed in transfected cells; host or cells: CV-1 cells
T1 sequence (Q96RI1 1-486): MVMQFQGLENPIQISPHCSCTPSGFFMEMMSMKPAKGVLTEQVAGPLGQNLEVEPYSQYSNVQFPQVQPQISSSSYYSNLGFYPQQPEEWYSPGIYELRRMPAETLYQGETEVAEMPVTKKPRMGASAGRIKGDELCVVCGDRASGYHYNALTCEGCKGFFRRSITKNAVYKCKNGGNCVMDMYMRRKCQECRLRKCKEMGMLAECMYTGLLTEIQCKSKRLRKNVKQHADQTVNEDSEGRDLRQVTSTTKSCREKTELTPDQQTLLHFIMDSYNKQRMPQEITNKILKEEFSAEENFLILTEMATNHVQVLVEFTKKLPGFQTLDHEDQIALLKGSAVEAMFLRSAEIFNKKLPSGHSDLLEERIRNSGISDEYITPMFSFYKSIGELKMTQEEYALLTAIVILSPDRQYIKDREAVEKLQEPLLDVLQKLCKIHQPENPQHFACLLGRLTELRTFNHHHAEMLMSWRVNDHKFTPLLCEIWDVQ
T1 sequence (P19793 1-462 partner): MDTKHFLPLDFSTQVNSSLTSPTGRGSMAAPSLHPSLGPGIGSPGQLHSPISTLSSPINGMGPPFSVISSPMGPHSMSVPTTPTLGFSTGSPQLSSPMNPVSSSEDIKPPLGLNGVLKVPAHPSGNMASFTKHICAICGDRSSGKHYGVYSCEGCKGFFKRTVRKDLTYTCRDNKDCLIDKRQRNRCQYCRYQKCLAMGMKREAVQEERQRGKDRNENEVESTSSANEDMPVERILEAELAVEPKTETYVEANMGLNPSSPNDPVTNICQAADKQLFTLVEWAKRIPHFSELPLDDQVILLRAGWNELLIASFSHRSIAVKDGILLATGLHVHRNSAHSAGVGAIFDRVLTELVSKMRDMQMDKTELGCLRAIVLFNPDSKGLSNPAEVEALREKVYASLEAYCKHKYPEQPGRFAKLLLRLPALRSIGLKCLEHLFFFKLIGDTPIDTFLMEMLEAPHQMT
Experiment: In Vitro FXR Assay (TK): TK-ECRE-luc reporter in transfected CV-1 cells
Type: cell-based
Conditions: 18 hrs incubation, luminescence
Outline: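 First, CV-1 cells were grown overnight in stripped-serum DMEM, then transfected for 18 h with expression plasmids for human FXR and RXR plus a TK-ECRE luciferase reporter and YFP. Next, serially diluted compounds were applied for 18 h, and lysates were read by luminescence.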

Q: With `Cc1ccc(C23CCC(CN(c4cc(-c5cnn(C(C)C)c5)ccn4)C(=O)[C@H]4CC[C@H](OC(=O)N5CC(O)C5)CC4)(CC2)CC3)cc1C` [Compound 26.09, 4-(((4-(3,4-Dimethylphenyl)bicyclo[2.2.2]octan-1-yl)methyl)(4-(1-isopropyl-1H-pyrazol-4-yl)pyridin-2-yl)carbamoyl)cyclohexyl trans-3-hydroxyazetidine-1-carboxylate] as the molecule, how does the pEC50 read?
A: ≥ 7.30

Q: How did the pEC50 turn out when `CC(C)n1cc(-c2ccnc(N(CC34CCC(C5CCC(C)(C)CC5)(CC3)CC4)C(=O)[C@H]3CC[C@H](OC(=O)N4CC(O)C4)CC3)c2)cn1` [Compound 26.19, 4-(((4-(4,4-Dimethylcyclohexyl)bicyclo[2.2.2]octan-1-yl)methyl)(4-(1-isopropyl-1H-pyrazol-4-yl)pyridin-2-yl)carbamoyl)cyclohexyl trans-3-hydroxyazetidine-1-carboxylate] was run?
A: 6.00 to 7.30

Q: `COc1ccc([C@H]2CC[C@H](CN(c3cc(-c4cnc(C5CC5)s4)ccn3)C(=O)[C@H]3CC[C@H](OC(=O)NCC(C)(C)O)CC3)CC2)cc1C` [Compound 2, trans-4-((4-(2-Cyclopropylthiazol-5-yl)pyridin-2-yl)(((trans)-4-(4-methoxy-3-methylphenyl)cyclohexyl)methyl)carbamoyl)cyclohexyl (2-hydroxy-2-methylpropyl)carbamate] was tested. Which pEC50 did it give?
A: ≥ 7.30

Q: How did the pEC50 turn out when `COc1ccc([C@H]2CC[C@H](CN(c3cccc(-c4cnn(C(C)C)c4)c3)C(=O)[C@H]3CC[C@H](OC(=O)NCC(C)(C)O)CC3)CC2)cc1C#N` [Compound 5.09, trans-4-((((trans)-4-(3-Cyano-4-methoxyphenyl)cyclohexyl)methyl)(3-(1-isopropyl-1H-pyrazol-4-yl)phenyl)carbamoyl) cyclohexyl(2-hydroxy-2-methylpropyl)carbamate] was run?
A: ≥ 7.30

Q: With `COc1ccc(C23CCC(CN(c4ccc(Cl)c(-c5cnn(C(C)C)c5)c4)C(=O)[C@H]4CC[C@H](OC(=O)N5CC(O)C5)CC4)(CC2)CC3)cc1C` [Compound 26.04, 4-((4-Chloro-3-(1-isopropyl-1H-pyrazol-4-yl)phenyl)((4-(4-methoxy-3-methylphenyl)bicyclo[2.2.2]octan-1-yl)methyl)carbamoyl)(trans-cyclohexyl) 3-hydroxyazetidine-1-carboxylate] as the molecule, how does the pEC50 read?
A: ≥ 7.30

Q: With `COc1ccc(C23CCC(CN(c4cc(C5CCN(C(C)C)C5)ccn4)C(=O)[C@H]4CC[C@H](OC(=O)N5CC(O)C5)CC4)(CC2)CC3)cc1C` (stereo partly drawn) [Compound 23.18, 4-((4-(1-(Isopropylpyrrrolidin-3-yl)pyridin-2-yl)((4-(4-methoxy-3-methylphenyl)bicyclo[2.2.2]octan-1-yl)methyl)carbamoyl)cyclo-hexyl trans-3-hydroxyazetidine-1-carboxylate] as the molecule, how does the pEC50 read?
A: 6.00 to 7.30

Q: `COc1ccc(C23CCC(CN(c4cc(-c5cc(C(C)C)on5)ccn4)C(=O)[C@H]4CC[C@H](OC(=O)N5CC(O)C5)CC4)(CC2)CC3)cc1C` [Compound 4.27, 4-((4-(5-Isopropylisoxazol-3-yl)pyridin-2-yl)((4-(4-methoxy-3-methylphenyl)bicyclo[2.2.2]octan-1-yl)methyl)carbamoyl) cyclohexyl 3-hydroxyazetidine-trans-1-carboxylate] was tested. Which pEC50 did it give?
A: ≥ 7.30

Q: `COc1ccc([C@H]2CC[C@H](CN(c3cccc(-c4cnn(C(C)C)c4)c3)C(=O)[C@H]3CC[C@H](NC(=O)C4CCCCC4)CC3)CC2)cc1C` [Compound 10.01, trans-4-(Cyclohexanecarboxamido)-N-(3-(1-isopropyl-1H-pyrazol-4-yl)phenyl)-N-((trans-4-(4-methoxy-3-methylphenyl)cyclohexyl)methyl) cyclohexanecarboxamide] was tested. Which pEC50 did it give?
A: 6.00 to 7.30

Q: With `COc1ccc([C@H]2CC[C@H](CN(c3cc(-c4cnc(C(C)C)s4)ccn3)C(=O)[C@H]3CC[C@H](OC(=O)NC(C)C)CC3)CC2)cc1C` [Compound 2.47, trans-4-((4-(2-Isopropylthiazol-5-yl)pyridin-2-yl)((trans-4-(4-methoxy-3-methylphenyl)cyclohexyl)methyl)carbamoyl)cyclohexyl isopropylcarbamate] as the molecule, how does the pEC50 read?
A: ≥ 7.30

Q: `COc1ccc([C@H]2CC[C@H](CN(c3cc(-c4cc(C(C)C)on4)ccn3)C(=O)[C@H]3CC[C@H](OC(=O)N4CC(O)C4)CC3)CC2)cc1C` [Compound 2.56, trans-4-((4-(5-Isopropylisoxazol-3-yl)pyridin-2-yl)(((trans)-4-(4-methoxy-3-methylphenyl)cyclohexyl)methyl)carbamoyl)cyclohexyl 3-hydroxyazetidine-1-carboxylate] was tested. Which pEC50 did it give?
A: ≥ 7.30

Q: How did the pEC50 turn out when `COc1ccc(C23CCC(CN(c4cc(-c5cnc(C(C)C)s5)ccn4)C(=O)[C@H]4CC[C@H](OC(=O)NCCC(C)(C)O)CC4)(CC2)CC3)cc1C` [Compound 4.39, 4-((4-(2-Isopropylthiazol-5-yl)pyridin-2-yl)((4-(4-methoxy-3-methylphenyl)bicyclo[2.2.2]octan-1-yl)methyl)carbamoyl)(trans-cyclohexyl) (3-hydroxy-3-methylbutyl)carbamate] was run?
A: ≥ 7.30

Q: How did the pEC50 turn out when `COc1ccc(C23CCC(CN(c4cc(-c5cnn(C6(C)CCC6)c5)ccn4)C(=O)[C@H]4CC[C@H](OC(=O)N5CC(CS(C)(=O)=O)C5)CC4)(CC2)CC3)cc1C` [Compound 25.20, 4-(((4-(4-Methoxy-3-methylphenyl)bicyclo[2.2.2]octan-1-yl)methyl)(4-(1-(1-methylcyclobutyl)-1H-pyrazol-4-yl)pyridin-2-yl)carbamoyl)(trans-cyclohexyl) 3-((methysulfonyl)methyl)azetidine-1-carboxylate] was run?
A: ≥ 7.30

Q: With `COc1ccc([C@H]2CC[C@H](CN(c3cccc(-c4cnn(C(C)C)c4)c3)C(=O)[C@H]3CC[C@H](OC(=O)N4CCN(C)CC4)CC3)CC2)cc1C` [Compound 5.11, trans-4-((3-(1-Isopropyl-1H-pyrazol-4-yl)phenyl)((trans-4-(4-methoxy-3-methylphenyl)cyclohexyl)methyl)carbamoyl)cyclohexyl 4-methylpiperazine-1-carboxylate] as the molecule, how does the pEC50 read?
A: ≥ 7.30

Q: `COc1ccc(C23CCC(CN(c4cc(-c5cnn(C(C)C(F)(F)F)c5)ccn4)C(=O)[C@H]4CC[C@H](OC(=O)N5CC(O)C5)CC4)(CC2)CC3)cc1C` (stereo partly drawn) [Compound 26.11, 4-(((4-(4-Methoxy-3-methylphenyl)bicyclo[2.2.2]octan-1-yl)methyl)(4-(1-(1,1,1-trifluoropropan-2-yl)-1H-pyrazol-4-yl)pyridin-2-yl)carbamoyl)cyclohexyl trans-3-hydroxyazetidine-1-carboxylate] was tested. Which pEC50 did it give?
A: ≥ 7.30

Q: With `COc1ccc([C@H]2CC[C@H](CN(c3cc(-c4cc(C5CC5)on4)ccn3)C(=O)[C@H]3CC[C@H](OC(=O)N4CC(O)C4)CC3)CC2)cc1C` [Compound 2.09, trans-4-((4-(5-Cyclopropylisoxazol-3-yl)pyridin-2-yl)((trans-4-(4-methoxy-3-methylphenyl)cyclohexyl)methyl)carbamoyl)cyclohexyl 3-hydroxyazetidine-1-carboxylate] as the molecule, how does the pEC50 read?
A: ≥ 7.30

Q: How did the pEC50 turn out when `COc1ccc(C23CCC(CN(c4cc(-c5cnc(C6CC6)s5)ccn4)C(=O)[C@H]4CC[C@H](NC(=O)CO)CC4)(CC2)CC3)cc1C` [Compound 9.08, (trans)-N-(4-(2-Cyclopropylthiazol-5-yl)pyridin-2-yl)-4-(2-hydroxyacetamido)-N-((4-(4-methoxy-3-methylphenyl)bicyclo[2.2.]octan-1-yl)methyl)cyclohexanecarboxamide] was run?
A: ≥ 7.30
